Data on 15 compounds can be found in patent US6087361A, “Aryl-imidazolines and aryl-imidazoles useful as α-2 adrenergic agonists without cardiovascular side effects” (Allergan Sales, Inc., priority 1997, dated 2000).

The term Ki denotes the equilibrium dissociation constant of an inhibitor or competing ligand from its target.

Assay [1] has as its target α1. Nature of the assay: Receptor binding, [3H]prazosin, human cerebral cortex membranes (HCC). To be noted: 22° C., 30 min. The method, then: Tissue preparation: Membrane suspensions were prepared from human cerebral cortex ([…], for α1 receptors) obtained from the UCI Organ and Tissue Bank. Briefly, tissues (1 g) were homogenized in 25 mL of ice-cold 5 mM Tris, pH 7.4 with a Polytron homogenizer for 30 sec at setting #7, and centrifuged for
10-12 minutes at 300× g at 4° C. The supernatant was filtered through 2 layers of gauze and diluted 1:2 with 50 mM Tris-HCl buffer, pH 7.4, then centrifuged at 49,000× g for 20 minutes. The pellet fraction was washed 3 times (resuspended in Tris-HCl buffer and centrifuged for 20 minutes; at 49,000× g). The pellet was then stored at -80° C. until the binding assay.
Binding Studies: The radioligands [^3 H]rauwolscine (specific activity 80 Ci/mmol) and [^3 H]prazosin (specific activity 76 Ci/mmol) were obtained from New England Nuclear, Boston, Mass. Frozen membrane pellet was resuspended in 25 mM glycine/glycine, pH 7.5 and incubated with radioligand under the following conditions: CHO-C10, CHO-RNG, CHO-C4-[^3 H]rauwolscine, 22° C., 30 minutes; RKC-[^3 H]rauwolscine, 0° C., 120 minutes; and, HCC-[^3 H]prazosin, 22° C., 30 minutes in a final volume of 500 ul. At the end of the incubation period, the samples were filtered through glass filters (Whatman GF/B) in a 96 well cell harvester and rapidly washed four times with 4 mL of iced-cold 50 mM Tris-HCl buffer. The filters were then oven dried and transferred to scintillation vials containing 10 mL of Beckman's Ready Protein® scintillation cocktail for counting. […] Protein concentrations were determined with a protein assay kit from Bio Rad. Binding isotherms, equilibrium dissociation and affinity constants were analyzed and determined by the non-linear least squares curve fitting programs EBDA (BioSoft) or AccuFit Competition/Saturation by Beckman.
The radioligands [^3 H] rauwolscine (specific activity 80 Ci/mmol) and [^3 H] prazosin (specific activity 76 Ci/mmol) were obtained from New England Nuclear, Boston, Mass. Frozen membrane pellet was resuspended in 25 mM glycine/glycine, pH 7.4 and incubated with radioligand under the following conditions: CHO-C10, CHO-RNG, CHO-C4-[^3 H]rauwolscine, 22° C., 30 min.; and, HCC-[^3 H]prazowsin, 22° C., 30 minutes in a final volume of 500 ul. At the end of the incubation period, the samples were filtered through glass fiber filters (Whatman GF/B) in a 96 well cell harvester and rapidly washed four times which 4 mL of iced-cold 50 mM Tris-CHI buffer. The filters were then oven dried and transferred to scintillation vials containing 5 mL of Beckman's Ready Protein® scintillation cocktail for counting. […] Protein concentrations were determined with a protein assay kit from Bio lad. Binding isotherms, equilibrium dissociation and affinity constants were analyzed and determined by the non-linear least squares curve fitting programs AccuFit Competition/Saturation by Beckman.
Representative compounds of the present invention were tested according to the procedures given above. […] The receptor binding studies and K1 are measures of the affinity of a compound for a particular receptor.

For assay [2], the target named is I1 imidazoline receptor. Nature of the assay: I1 imidazoline receptor binding assay, 3H-clonidine, bovine VLM membranes. To be noted: 25° C., 50 min. On the procedure: Fresh bovine brain stems were obtained from a local slaughter house. After removal of pia-arachnoid, the medulla was isolated by dissecting the brain stem about 1 cm posterior and 1 cm caudal to the obex. The ventral quadrants of the medulla excluding the pyramids were used as the VLM. For each preparation, 30 to 40 VLM were used. Initial homogenization was performed in 20 volumes of 5 mM HEPES buffer (pH 7.4 at 4° C.) containing 250 mM sucrose, 50 uM Calpain I inhibitor (Boehginer Mannheim, Indianapolis, Ind.), 100 uM 1,10-phenanthroline (Sigma, St. Louis, Mo.) and 50 uM Pefabloc (Boehginer Mannheim, Indianapolis, Ind.), using Virtis homogenizer at setting 7 with three 10 second pulses, followed by three passes in a teflon-glass tissue homogenizer. The inhibitors were added to prevent degradation by proteases and peptidases. The homogenates were then centrifuged at 1000× g for 10 min and the resulting pellets were re-homogenized and centrifuged. Supernatants resulted from both runs were combined and centrifuged for 20 min at 48000× g. The pellets obtained were resuspended in a teflon-glass homogenizer in 50 mM Tris-HCl with 5 mM EDTA (pH 7.7 at 4° C.), centrifuged, and resuspended in 50 mM Tris-HCl with 25 mM NaCl, pH 7.7 at room temp. To remove endogenous ligands, the homogenate was incubated 30 min at room temp before it was centrifuged for 20 min at 48000× g. The pellets were then washed with 50 mM Tris-HCl buffer, (pH 7.4 at 4° C.) and loaded on top of 5 mM HEPES/0.85 M sucrose (pH 7.4 at 4° C.). Pellets obtained after centrifugation at 48000× g for 20 min were saved. The fatty connective tissue on the top layer was discarded. The partially purified VLM membrane pellets were then washed twice with 50 mM Tris-HCl, pH 7.7 at 4° C., flash frozen in dry ice/acetone slush, and stored at -100° C. until use. Receptor binding experiments were performed within days after the membrane preparation.
I1 imidazoline receptor binding affinity was determined from radioligand binding of ^3 H-clonidine (NEN, Boston, Mass.) to bovine VLM membranes. Specific activity of ^3 H-clonidine was 43 Ci/mmol. Kd of ^3 H-clonidine binding to the I1 imidazoline receptor was determined by saturation experiments and Ki of other ligands studied were determined by competition experiments. The radioligand binding assay was performed in Teflon 96-wells with the Biomek-1000 robotics (Beckman Instruments, Fullerton, Calif.). Each well contained […] ^3 H-Clonidine and 0.3 to 0.5 mg of bovine VLM protein in 5 mM HEPES buffer containing 0.5 mM EGTA and 0.5 mM MgCl2, pH 7.4 (0.1 mM ascorbic acid was added just before the protein). After 50 min of incubation at 25° C., the reaction was terminated by rapid filtration over Whatman GF/B filters treated with 0.1% polyethyleneimine and washed with 12 ml ice cold 50 mM Tris-HCl, pH 7.4 at 4° C. in a Brandel Harvester (Brandel, Gaithersburg, Md.). Both `hot` and `cold` saturation experiments were performed. In `hot` saturation experiments, studies were performed with ^3 H-clonidine ranging from 0.1 to 50 nM. In `cold` saturation experiments, studies were performed with 2 nM ^3 H-clonidine with 20 different concentrations of the unlabeled clonidine, ranging from 0.1 nM to 1 uM unlabeled clonidine. Non specific binding was defined by parallel incubations containing 10^-5 M phentolamine or naphazoline. Imidazoline binding was determined by parallel incubations in which the alpha-adrenergic sites were masked with 10^-5 M norepinephrine. During competition experiments, ligands of 20 concentrations ranged from 10^-11 to 10^-4 were used. Radioactivity was counted in a Beckman LS-3801 scintillation counter. Data were captured and analyzed with Accufit saturation and competition softwares modeled both for one-site and two-site fits (Beckman Instruments, Fullerton, Calif.) using an IBM compatible computer. All experiments were repeated at least twice.

The target of assay [3] is I2A. The experiment in a line: Receptor binding, I2A.

For `Cc1ccccc1NC1=NCCN1` [Example 1], the figures for the Ki in assay [1], in assay [2] and in assay [3] were 5.03 µM, 0.012 µM and 1.2 µM, respectively.
Taken in the same sequence, the figures for `Nc1cc(Cl)c(NC2=NCCN2)c(Cl)c1` [Example 3] were 0.181 µM, 0.019 µM and 64.8 µM.
Take `c1cc2c(cc1NC1=NCCN1)NCCN2` [Example 7]: the Ki in assay [1] came out at 5.1 µM; in assay [2] it was 1.99 µM; in assay [3] it was 100 µM.
Taken in the same sequence, the figures for `Cc1c(NC2=NCCN2)ccc2c1NCCN2` [Example 8] were 8.71 µM, 100 µM and 100 µM.
For the compound `Brc1c(NC2=NCCN2)ccc2c1NCCN2` [Example 9], the results for the Ki in assay [1], in assay [2] and in assay [3] were 1.12 µM, 4.58 µM and 7.56 µM, respectively.
The like results for `CC1CNc2c(ccc(NC3=NCCN3)c2Br)N1` (stereo not shown) [Example 10] were, in that order, 6.61 µM, 3.95 µM and 24.8 µM.
Taken in the same sequence, the figures for `c1cc2c(cc1NC1=NCCN1)OCCO2` [Example 11] were 2.4 µM, 1.83 µM and 1.08 µM.
In the case of `COc1ccc(NC2=NCCN2)c(C)c1OC` [Example 12], the results for the Ki in assay [1], in assay [2] and in assay [3] were 1.45 µM, 0.34 µM and 100 µM, respectively.
The like results for `Cc1c(NC2=NCCN2)ccc2c1OCCO2` [Example 13] were, in that order, 0.129 µM, 0.831 µM and 100 µM.
Taken in the same sequence, the figures for `O=C1COc2ccc(NC3=NCCN3)cc2N1` [Example 14] were 8.99 µM, 11.6 µM and 4.5 µM.
In the case of `Cc1c(NC2=NCCN2)ccc2c1NC(=O)CO2` [Example 15], the Ki worked out at 2.26 µM in assay [1] and 100 µM in assay [2].
On to `Cc1c(NC2=NCCN2)ccc2c1NCCO2` [Example 16], for which the Ki in assay [1] came out at 0.473 µM; in assay [2] it was 7.11 µM; in assay [3], 100 µM.
The like results for `Cc1cccc(Nc2ncc[nH]2)c1C` [Example 18] were, in that order, 5.21 µM, 0.019 µM and 0.141 µM.
On to `Cc1c(O)cccc1Nc1ncc[nH]1` [Example 20], for which the Ki turned out to be 11.3 µM in assay [1] and 0.412 µM in assay [2].
As to `COc1c(C(C)(C)C)cc(C)c(Nc2ncc[nH]2)c1C` [Example 22], the values for the Ki in assay [1], in assay [2] and in assay [3] were 4.17 µM, 4.32 µM and 100 µM, respectively.
